Laboratory results as given in patent US20180273598A1, “ADHD MARKER, APPLICATION THEREOF AND KIT” (WENZHOU KANGNING HOSPITAL CO., LTD., priority 2017, published 2018).

Tests used:
wild larvae zebrafish = test: Behavior tracking of wild-type zebrafish larvae treated with GHSR-1a antagonist; type: in vivo; conditions: wild-type (AB) embryos treated from 6 hpf to 3 dpf; 0.08 uM/L YIL781 (FIG. 4)
Description: Zebrafish embryos (AB) were treated with different concentrations of YIL781 (0.08 uM, 0.4 uM, 2 uM, 10 uM, 50 uM) from 6 hpf to 3 dpf, and the behavior was detected by viewpoint behavioral recorder. The concrete scheme was as follows: [table]

ghrelin mutant zebrafish = test: Behavior tracking of ghrelin mutant zebrafish larvae treated with methylphenidate; type: in vivo; conditions: ghrelin-/- embryos, 10 uM for 1 h at 3 dpf (FIG. 6)
Description: The embryos produced by ghrelin+/+, ghrelin−/− zebrafish intercross were treated with Methylphenidate at 72 hpf for 1 h. Pick a single hatched zebrafish larvae into a 96-well plate, behavior was tested as following table. After test, the genotype of the zebrafish larvae was identified by PCR and enzyme digestion.
The ghrelin^−/− embryos were treated with 10 uM methylphenidate for 1 h at 3 dpf, and the movement distance was measured by behavior recorder.

Row | SMILES | activity phenotype of normal zebrafish larvae (behavioral recorder) (wild larvae zebrafish) | movement distance of ghrelin mutant after treatment (ghrelin mutant zebrafish) | movement distance of treated ghrelin mutant compared with the control group (ghrelin mutant zebrafish)
1 | Cc1nc2ccc(Oc3ccc(F)cc3)cc2c(=O)n1C[C@H]1CCCN(C(C)C)C1 [YIL781] | induced normal zebrafish to produce a hyperactivity phenotype | – | –
2 | COC(=O)C(c1ccccc1)C1CCCCN1 (stereo not drawn) [methylphenidate] | – | decreased its movement distance | no significantly different with the control group
